According to patent US20240383852A1, “ANTI-VIRAL COMPOUNDS” (INFEX Therapeutics Limited, priority 2021, published 2024):
Counter-ions that a name gives are not always drawn. Like-named read-outs stand apart in the source and are kept apart here.

Assays:
[1] = tested on: human Hep G2 cells (ATCC HB-8065); experiment: Cytotoxicity in Hep G2 cells (CellTiter-Glo); type: cell-based
[2] = biological target: T1, SARS-CoV-2 PLpro (Severe acute respiratory syndrome coronavirus 2, UniProt P0DTD1); experiment: biochemical
T1 construct: containing 60 nM papain-like protease

[3] = Hep G2 cells, 100 μM test article, 24-hour exposure
[4] = 60 nM papain-like protease, 50 μM Z-RLRGG-AMC, pH 7.5, 37° C., read-out: SARS-CoV-2 PLpro IC50

Row | Structure (SMILES) | % Cell Viability [1, 3] [%] | IC50 [2, 4] [µM] | % Cell Viability ([1]; human, 24 h, 100 μM) [%] | IC50 [2] [µM]
1 | Cc1ccc(N2CCN(C)CC2)cc1C(=O)N[C@H](C)c1cccc(C(=O)NCC(N)=O)c1 [Example 310, N-[(1R)-1-[3-[(2-Amino-2-oxo-ethyl)carbamoyl]phenyl]ethyl]-2-methyl-5-(4-methylpiperazin-1-yl)benzamide hydrochloride salt] | 124.4 | < 5 |  | 
2 | COc1cc(Br)cc([C@@H](C)NC(=O)c2cc(N3C[C@H]4C[C@@H]3CN4C)ccc2C)c1 [Example 198, N-[(1R)-1-(3-Bromo-5-methoxy-phenyl)ethyl]-2-methyl-5-[(1R,4R)-5-methyl-2,5-diazabicyclo[2.2.1]heptan-2-yl]benzamide] | 1.6 | < 2 |  | 
3 | Cc1ccc(N2CCN(C)CC2)cc1C(=O)N[C@H](C)c1cccc(C(O)CO)c1 (stereo partly drawn) [Example 69, N-[(1R)-1-[3-(1,2-Dihydroxyethyl)phenyl]ethyl]-2-methyl-5-(4-methylpiperazin-1-yl)benzamide] | 107.0 | < 10 |  | 
4 | COc1ccc([C@@H](C)NC(=O)c2cc(N3CCN(C)CC3)ccc2C)cc1-c1cnn(C(F)F)c1 [Example 208, N-[(1R)-1-[3-[1-(Difluoromethyl)pyrazol-4-yl]-4-methoxy-phenyl]ethyl]-2-methyl-5-(4-methylpiperazin-1-yl)benzamide] | 87.8 | < 2 |  | 
5 | Cc1ccc(N2CCN(C)CC2)cc1C(=O)N[C@H](C)c1cccc(N2CCN(C)CC2)c1 [Example 103, 2-Methyl-5-(4-methylpiperazin-1-yl)-N-[(1R)-1-[3-(4-methylpiperazin-1-yl)phenyl]ethyl]benzamide] | 91.4 | < 5 |  | 
6 | COc1cc([C@@H](C)NC(=O)c2cc(N3CCN(C)CC3)ccc2C)ccc1OCc1ccccc1 [Example 184, N-[(1R)-1-(4-benzyloxy-3-methoxy-phenyl)ethyl]-2-methyl-5-(4-methylpiperazin-1-yl)benzamide] | 51.3 | < 2 |  | 
7 | COc1cc(-c2cn(C)nc2C)cc([C@@H](C)NC(=O)c2cc(N3CC4CNCC4C3)ccc2C)c1 (stereo partly drawn) [Example 268, 5-(2,3,3a,4,6,6a-Hexahydro-1H-pyrrolo[3,4-c]pyrrol-5-yl)-N-[(1R)-1-[3-(1,3-dimethylpyrazol-4-yl)-5-methoxy-phenyl]ethyl]-2-methyl-benzamide] | 75.0 | < 2 |  | 
8 | Cc1ccc(N2CCN(C)CC2)cc1C(=O)N[C@H](C)c1cccc(-c2ccc(C(O)CO)cc2)c1 (stereo partly drawn) [Example 70, N-[(1R)-1-[3-[4-(1,2-Dihydroxyethyl)phenyl]phenyl]ethyl]-2-methyl-5-(4-methylpiperazin-1-yl)benzamide] | 59.1 | < 2 |  | 
9 | Cc1ccc(N2CCN(C)CC2)cc1C(=O)N[C@H](C)c1ccc(C)c(-c2cnn(C)c2)c1 [Example 228, 2-Methyl-N-[(1R)-1-[4-methyl-3-(1-methylpyrazol-4-yl)phenyl]ethyl]-5-(4-methylpiperazin-1-yl)benzamide] | 69.9 | < 2 |  | 
10 | COc1ccc([C@@H](C)NC(=O)c2cc(N3CCN(C)CC3)ccc2C)cc1OCCN1CCOCC1 [Example 292, N-[(1R)-1-[4-Methoxy-3-(2-morpholinoethoxy)phenyl]ethyl]-2-methyl-5-(4-methylpiperazin-1-yl)benzamide] | 88.9 | < 2 |  | 
11 | Cc1ccc(C2CC2)cc1C(=O)N[C@H](C)c1cccc2ccccc12 [Example 4, 5-Cyclopropyl-2-methyl-N-[(1R)-1-(1-naphthyl)ethyl]benzamide] | 56.8 | < 5 |  | 
12 | Cc1ccc(N2CCN(C)CC2)cc1C(=O)N[C@H](C)c1ccc(OC(F)(F)F)c(Br)c1 [Example 190, N-[(1R)-1-[3-Bromo-4-(trifluoromethoxy)phenyl]ethyl]-2-methyl-5-(4-methylpiperazin-1-yl)benzamide] | 0.9 | < 5 |  | 
13 | Cc1ccc(C2CCN(C)CC2)cc1C(=O)N[C@H](C)c1cccc2ccccc12 [Example 157, 2-Methyl-5-(1-methyl-4-piperidyl)-N-[(1R)-1-(1-naphthyl)ethyl]benzamide] | 1.5 | < 2 |  | 
14 | Cc1ccc(N2CCN(C3CC3)CC2)cc1C(=O)N[C@H](C)c1cccc2ccccc12 [Example 115, 5-(4-Cyclopropylpiperazin-1-yl)-2-methyl-N-[(1R)-1-(1-naphthyl)ethyl]benzamide] | 26.7 | < 2 |  | 
15 | COc1ccc([C@@H](C)NC(=O)c2cc(N3CCN(C)CC3)ccc2C)cc1-c1csc(C(=O)N(C)C)c1 [Example 285, 4-[2-Methoxy-5-[(1R)-1-[[2-methyl-5-(4-methylpiperazin-1-yl)benzoyl]amino]ethyl]phenyl]-N,N-dimethyl-thiophene-2-carboxamide] | 72.2 | < 2 |  | 
16 | C[C@@H](NC(=O)c1cc(C2=CCNC2)ccc1Cl)c1cccc2ccccc12 [Example 146, 2-Chloro-5-(2,5-dihydro-1H-pyrrol-3-yl)-N-[(1R)-1-(1-naphthyl)ethyl]benzamide Hydrochloride Salt] | 0.2 | < 2 |  | 

Row | Structure (SMILES) | % Cell Viability [1, 3] [%] | IC50 [2, 4] [µM] | % Cell Viability ([1]; human, 24 h, 100 μM) [%] | IC50 [2] [µM]
17 | Cc1ccc(N2CCN(CCC(=O)O)CC2)cc1C(=O)N[C@H](C)c1cccc2ccccc12 [Example 162, 3-[4-[4-Methyl-3-[[(1R)-1-(1-naphthyl)ethyl]carbamoyl]phenyl]piperazin-1-yl]propanoic acid] | 104.9 | < 2 |  | 
18 | Cc1ccc(N2CCN(C)CC2)cc1C(=O)N[C@H](C)c1cccc(CCC(=O)NCCO)c1 [Example 96, N-[(1R)-1-[3-[3-(2-Hydroxyethylamino)-3-oxo-propyl]phenyl]ethyl]-2-methyl-5-(4-methylpiperazin-1-yl)benzamide] | 97.3 | < 10 |  | 
19 | COc1ccc([C@@H](C)NC(=O)c2cc(N3CCN(C)CC3)ccc2C)cc1 [Example 30, N-[(1R)-1-(4-Methoxyphenyl)ethyl]-2-methyl-5-(4-methylpiperazin-1-yl)benzamide] | 102.3 | < 10 |  | 
20 | COc1ccc(-c2cccc([C@@H](C)NC(=O)c3cc(N4CCN(C)CC4)ccc3C)c2)cc1 [Example 40, N-[(1R)-1-[3-(4-Methoxyphenyl)phenyl]ethyl]-2-methyl-5-(4-methylpiperazin-1-yl)benzamide] | 0.9 | < 2 |  | 
21 | COc1ccc([C@@H](C)NC(=O)c2cc(N3CCN(C)CC3)ccc2C)cc1-c1ccncc1 [Example 211, N-[(1R)-1-[4-Methoxy-3-(4-pyridyl)phenyl]ethyl]-2-methyl-5-(4-methylpiperazin-1-yl)benzamide] | 86.0 | < 2 |  | 
22 | Cc1ccc(N2CCN(C)CC2)cc1C(=O)N[C@H](C)c1ccc(OCc2ccccc2)c(-c2cnn(C)c2)c1 [Example 249, N-[(1R)-1-[4-Benzyloxy-3-(1-methylpyrazol-4-yl)phenyl]ethyl]-2-methyl-5-(4-methylpiperazin-1-yl)benzamide] | 0.5 | < 2 |  | 
23 | Cc1ccc(N2CCN(C)CC2)cc1C(=O)N[C@H](C)c1ccc(OCCO)c(-c2cnn(C)c2)c1 [Example 282, N-[(1R)-1-[4-(2-Hydroxyethoxy)-3-(1-methylpyrazol-4-yl)phenyl]ethyl]-2-methyl-5-(4-methylpiperazin-1-yl)benzamide] | 100.0 | < 2 |  | 
24 | COc1ccc([C@@H](C)NC(=O)c2cc(N3CCN(C)CC3)ccc2C)cc1-c1ccccc1 [Example 203, N-[(1R)-1-(4-Methoxy-3-phenyl-phenyl)ethyl]-2-methyl-5-(4-methylpiperazin-1-yl)benzamide] | 0.9 | < 2 |  | 
25 | Cc1ccc([C@@H](C)NC(=O)c2cc(N3CCN(C)CC3)ccc2C)cc1Br [Example 196, N-[(1R)-1-(3-Bromo-4-methyl-phenyl)ethyl]-2-methyl-5-(4-methylpiperazin-1-yl)benzamide] | 4.7 | < 2 |  | 
26 | COc1ccc([C@@H](C)NC(=O)c2cc(N3CCN(C)CC3)ccc2C)cc1OC [Example 23, N-[(1R)-1-(3,4-Dimethoxyphenyl)ethyl]-2-methyl-5-(4-methylpiperazin-1-yl)benzamide] | 87.3 | < 2 |  | 
27 | Cc1ccc(N2CCC(N)CC2)cc1C(=O)N[C@H](C)c1cccc2ccccc12 [Example 16, 5-(4-Amino-1-piperidyl)-2-methyl-N-[(1R)-1-(1-naphthyl)ethyl]benzamide] | 1.1 | < 5 |  | 
28 | Cc1ccc(N2CCS(=O)(=O)CC2)cc1C(=O)N[C@H](C)c1cccc2ccccc12 [Example 26, 5-(1,1-Dioxo-1,4-thiazinan-4-yl)-2-methyl-N-[(1R)-1-(1-naphthyl)ethyl]benzamide] | 82.8 | < 100 |  | 
29 | Cc1ccc(N2CCCNCC2)cc1C(=O)N[C@H](C)c1cccc2ccccc12 [Example 128, 5-(1,4-Diazepan-1-yl)-2-methyl-N-[(1R)-1-(1-naphthyl)ethyl]benzamide] | 1.1 | < 2 |  | 
30 | Cc1ccc(N2CCN(C)CC2)cc1C(=O)N[C@H](C)c1ccc(-c2ccc(CO)cc2)cc1 [Example 54, N-[(1R)-1-[4-[4-(Hydroxymethyl)phenyl]phenyl]ethyl]-2-methyl-5-(4-methylpiperazin-1-yl)benzamide] | 76.0 | < 10 |  | 
31 | Cc1ccc(N2CCN(C)CC2)cc1C(=O)N[C@H](C)c1cccc(-c2cccc(N3CCNCC3)c2)c1 [Example 74, 2-Methyl-5-(4-methylpiperazin-1-yl)-N-[(1R)-1-[3-(3-piperazin-1-ylphenyl)phenyl]ethyl]benzamide] | 0.6 | < 2 |  | 
32 | COc1cc([C@@H](C)NC(=O)c2cc(N3C[C@H]4CC[C@@H](C3)N4)ccc2C)ccc1OCC1CC1 [Example 298, N-[(1R)-1-[4-(Cyclopropylmethoxy)-3-methoxy-phenyl]ethyl]-5-[(1R,5S)-3,8-diazabicyclo[3.2.1]octan-3-yl]-2-methyl-benzamide] |  |  | 43.9 | < 2
